Literature values, collected in patent US20170326066A1, “METHOD OF TREATING HYPERTENSION” (Ezra Pharma LLC, priority 2016, published 2017).

peak plasma concentration reduced to (by 12 hours): approximately 65% | time by which plasma levels reach very low level (following Cmax): 10 to 12 h | half-life (in vivo): about 6 hours | Tmax (oral administration): 2 to 4 h | absolute bioavailability (oral administration): about 25% | absolute bioavailability (range) (oral administration): 10-35%
Compound: CCCCC(=O)N(Cc1ccc(-c2ccccc2-c2nnn[nH]2)cc1)[C@H](C(=O)O)C(C)C [valsartan]
